Experimental data published in the supplement of paper PMC10883282.

How the values were obtained:
Assay in all cases: relative viability vs DMSO control (72 h) (fraction); higher = more viable cells
KHOS-240S = system: KHOS-240S
How it was run: (§1)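 Sarcoma cell lines went into 384-well plates at densities chosen to reach 80–90% confluence. After 24 h, each well received 2.5 µl of serially diluted compound, with source plates running from 10 mM to 0.0002 mM, and the plates were kept 72 h at 37 °C, 5% CO2, alongside 0.1% DMSO vehicle and a 5 µM positive control. Relative viability was derived from ATPLite readings as percent growth and averaged over up to triplicate wells. The data were then rescaled so that 1 stands for full and 0 for none.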

SYO-1 = system: SYO-1
How it was run: as §1

MES-SA = system: MES-SA
How it was run: as §1

SW1353 = system: SW1353
How it was run: as §1

RD = system: RD
How it was run: as §1

CNC(=O)c1cc(Oc2ccc(NC(=O)Nc3ccc(Cl)c(C(F)(F)F)c3)cc2)ccn1 [Sorafenib]
relative viability
Conditions | KHOS-240S | MES-SA | RD | SW1353 | SYO-1
0.00017 µM | 1.04 | 0.928 | 1.11 | 0.98 | 0.968
0.00051 µM | 1.07 | 0.925 | 1.11 | 1.02 | 0.967
0.00152 µM | 1.09 | 0.909 | 1.09 | 1.01 | 0.96
0.00457 µM | 1.08 | 0.934 | 1.12 | 1.01 | 0.95
0.01372 µM | 1.06 | 0.923 | 1.09 | 1.01 | 0.948
0.04115 µM | 1.08 | 0.949 | 1.12 | 1.01 | 0.944
0.1235 µM | 1.08 | 1.01 | 1.14 | 0.992 | 0.916
0.3704 µM | 1.11 | 1.03 | 1.13 | 1.02 | 0.773
1.111 µM | 1.05 | 0.985 | 1.04 | 1.04 | 0.626
3.333 µM | 0.728 | 0.716 | 0.9 | 0.85 | 0.509
10 µM | 0.309 | 0.135 | 0.504 | 0.39 | 0.137

NC(=O)c1cccc2cn(-c3ccc([C@@H]4CCCNC4)cc3)nc12 [Niraparib]
relative viability
Conditions | KHOS-240S | MES-SA | RD | SW1353 | SYO-1
0.00017 µM | 1.06 | 0.9156 | 1.06 | 0.976 | 0.951
0.00051 µM | 1.08 | 0.898 | 1.09 | 0.981 | 0.965
0.00152 µM | 1.07 | 0.868 | 1.1 | 0.969 | 0.95
0.00457 µM | 1.07 | 0.918 | 1.117 | 0.958 | 0.946
0.01372 µM | 1.06 | 0.882 | 1.09 | 0.927 | 0.927
0.04115 µM | 1.07 | 0.893 | 1.12 | 0.965 | 0.861
0.1235 µM | 1.06 | 0.876 | 1.08 | 0.956 | 0.832
0.3704 µM | 1.06 | 0.8654 | 1.05 | 0.964 | 0.765
1.111 µM | 1.03 | 0.824 | 1.006 | 0.933 | 0.664
3.333 µM | 1.01 | 0.774 | 0.899 | 0.942 | 0.522
10 µM | 0.877 | 0.598 | 0.784 | 0.904 | 0.29

Cc1ccc(C(=O)OCc2ccc([C@@H](CN)C(=O)Nc3ccc4cnccc4c3)cc2)c(C)c1 [Netarsudil]
relative viability
Conditions | KHOS-240S | MES-SA | RD | SW1353 | SYO-1
0.00017 µM | 1.06 | 0.89 | 1.09 | 0.939 | 0.953
0.00051 µM | 1.07 | 0.901 | 1.1 | 0.945 | 0.962
0.00152 µM | 1.05 | 0.892 | 1.12 | 0.946 | 0.952
0.00457 µM | 1.05 | 0.905 | 1.11 | 0.944 | 0.953
0.01372 µM | 1.01 | 0.921 | 1.1 | 0.926 | 0.923
0.04115 µM | 1.03 | 0.884 | 1.14 | 0.946 | 0.874
0.1235 µM | 0.903 | 0.85 | 1.13 | 0.898 | 0.828
0.3704 µM | 0.768 | 0.775 | 1.15 | 0.7532 | 0.756
1.111 µM | 0.686 | 0.672 | 1.15 | 0.628 | 0.691
3.333 µM | 0.541 | 0.402 | 0.976 | 0.553 | 0.636
10 µM | 0.0141 | 0.00233 | 0.0128 | 0.0095 | -0.0088

C[C@H]1Oc2cc(cnc2N)-c2c(nn(C)c2C#N)CN(C)C(=O)c2ccc(F)cc21 [Lorlatinib]
relative viability
Conditions | KHOS-240S | MES-SA | RD | SW1353 | SYO-1
0.00017 µM | 1.06 | 0.955 | 1.09 | 1.04 | 0.99
0.00051 µM | 1.08 | 0.987 | 1.11 | 1.06 | 0.982
0.00152 µM | 1.07 | 0.943 | 1.11 | 1.027 | 0.985
0.00457 µM | 1.07 | 0.929 | 1.09 | 0.992 | 0.966
0.01372 µM | 1.06 | 0.922 | 1.12 | 0.985 | 0.966
0.04115 µM | 1.01 | 0.923 | 1.07 | 1 | 0.921
0.1235 µM | 1.01 | 0.911 | 1.02 | 0.976 | 0.873
0.3704 µM | 1.01 | 0.919 | 1 | 0.889 | 0.844
1.111 µM | 0.969 | 0.897 | 0.948 | 0.851 | 0.768
3.333 µM | 0.915 | 0.892 | 0.838 | 0.839 | 0.737
10 µM | 0.865 | 0.879 | 0.668 | 0.792 | 0.66
